Series [1] is described as follows: Pharmacokinetics in male diet-induced obese (DIO) mice. In kind it is in vivo. The note with it: mouse, single 200 nmol/kg SQ dose, plasma; for half-life: read-out: t½ (converted). The method, then:
Methods: Male DIO mice are administered a single SQ dose of 200 nmol/kg (0.98 mg/kg) of Example compounds in 40 mM Tris-HCL pH8 buffer with 0.02% PS80 at a volume of 10 mL/kg. […] Plasma concentration of Example compounds are determined by a qualified Liquid Chromatography Mass Spectrometry (LC/MS) method at Q Squared Solutions BioSciences LLC (Ithaca, NY). The Example compounds and an internal standard are extracted from 100% mouse plasma using protein precipitation followed by solid phase extraction. The intact mass of the Example compounds, which includes peptide plus acyl chain, are detected by a Q-Exactive™ Orbitrap® mass spectrometer.

For series [2], the target named is T1, hGIPR (Homo sapiens, UniProt P48546).
T1 construct: expressed in transfected cells; host or cells: HEK-293 clonal cell line
T1 sequence (P48546 22-466): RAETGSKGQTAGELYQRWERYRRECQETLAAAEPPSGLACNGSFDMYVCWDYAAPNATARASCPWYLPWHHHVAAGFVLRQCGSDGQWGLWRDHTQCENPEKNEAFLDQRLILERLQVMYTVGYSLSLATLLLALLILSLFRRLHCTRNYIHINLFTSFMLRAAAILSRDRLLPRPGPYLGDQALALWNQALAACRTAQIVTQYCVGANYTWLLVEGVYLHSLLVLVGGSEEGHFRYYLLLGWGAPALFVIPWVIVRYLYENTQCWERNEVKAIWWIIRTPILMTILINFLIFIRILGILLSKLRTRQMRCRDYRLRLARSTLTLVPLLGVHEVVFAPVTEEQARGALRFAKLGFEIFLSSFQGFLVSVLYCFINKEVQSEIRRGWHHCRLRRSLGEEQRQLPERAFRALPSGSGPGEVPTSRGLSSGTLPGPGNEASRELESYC
The series is described as follows: Functional cAMP assay in HEK-293 cells expressing hGIPR. In kind it is cell-based. The note with it: percent of maximal response to GIP(1-42)NH2. The method, then: (§1) Experiments also are performed under identical assay conditions with the addition of 1.0% fatty acid free, globulin free human serum albumin (Sigma Cat #A3782).
(§2) After a 30-min incubation at 37° C., the resulting increase in intracellular cAMP is quantitatively determined using a CisBio cAMP Dynamic 2 HTRF Assay Kit (62AM4PEJ). Briefly, cAMP levels within the cell are detected by adding the cAMP-d2 conjugate in cell lysis buffer (10 μL) followed by the antibody anti-cAMP-Eu^3+-Cryptate, also in cell lysis buffer (10 μL). The resulting competitive assay is incubated for at least 60 min at room temperature, and then is detected using a PerkinElmer Envision® instrument with excitation at 320 nm and emission at 665 nm and 620 nm. Envision units (emission at 665 nm/620 nm*10,000) are inversely proportional to the amount of cAMP present and are converted to nM cAMP per well using a cAMP standard curve. […] A relative EC50 value and percent top (Emax) are derived by non-linear regression analysis using the percent maximal response vs. the concentration of peptide added, fitted to a four-parameter logistic equation.
On the technique in general: Changes in cAMP serve as a functional read-out for many G protein-coupled receptors.

The target of series [3] is T2, hGLP-1R (Homo sapiens, UniProt P43220).
T2 construct: expressed in transfected cells; host or cells: HEK-293 clonal cell line
The series is described as follows: Functional cAMP assay in HEK-293 cells expressing hGLP-1R. In kind it is cell-based. The note with it: percent of maximal response to GLP-1(7-36)NH2. The method, then:
as §1, §2

Series [4] addresses T3, hGCGR (Homo sapiens, UniProt P47871, DEL55-55).
T3 construct: expressed in transfected cells; host or cells: HEK-293 clonal cell line
Briefly: Functional cAMP assay in HEK-293 cells expressing hGCGR. The series is classed as cell-based. The note with it: percent of maximal response to GCG. The method, then:
as §1, §2

Where [5] appears, read: HEK293, 0.1% bovine casein and 1.0% human serum albumin, read-out: hGIPR Emax.
Where [6] appears, read: HEK293, 0.1% bovine casein, read-out: hGIPR Emax.

Where two headings read alike, the source gives them in different places. Numbered stars: 1 amine (or outer) side, 2 acyl side, 3 side chain; on linkers, the order of the positions; unused ones are H or OH. Square brackets hold non-standard residues; d marks the D form. Side chains are listed from the residue outwards. Peptide text beside a SMILES is read from it. * marks the point of attachment. ξ: configuration not given here. C20 diacid = O=C(O)CCCCCCCCCCCCCCCCCCC(=O)*; αMePhe(2-F) = C[C@](N)(Cc1ccccc1F)C(=O)O; γGlu = O=C(O)[C@H](CCC(=O)[*:2])N[*:1]; αMeY = C[C@](N)(Cc1ccc(O)cc1)C(=O)O; 4Pal = N[C@@H](Cc1ccncc1)C(=O)O; αMeL = CC(C)C[C@](C)(N)C(=O)O; Orn = NCCC[C@H](N)C(=O)O; ξIva = CCC(C)(N)C(=O)O; AEEA = NCCOCCOCC(=O)O; Aib = CC(C)(N)C(=O)O

T2 sequence (P43220 24-463): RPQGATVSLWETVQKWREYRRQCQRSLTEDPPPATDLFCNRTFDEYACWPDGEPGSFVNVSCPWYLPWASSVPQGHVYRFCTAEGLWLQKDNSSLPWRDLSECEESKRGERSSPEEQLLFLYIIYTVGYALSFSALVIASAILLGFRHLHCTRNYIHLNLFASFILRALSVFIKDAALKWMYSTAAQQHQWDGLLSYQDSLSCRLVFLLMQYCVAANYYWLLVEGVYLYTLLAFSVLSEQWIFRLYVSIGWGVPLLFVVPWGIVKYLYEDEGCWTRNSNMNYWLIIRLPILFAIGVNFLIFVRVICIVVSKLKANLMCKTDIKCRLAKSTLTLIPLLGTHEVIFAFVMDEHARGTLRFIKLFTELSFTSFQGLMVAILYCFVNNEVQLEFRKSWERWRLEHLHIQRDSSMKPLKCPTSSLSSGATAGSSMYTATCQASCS
T3 sequence (P47871 with tags, fused parts or gaps DEL55-55): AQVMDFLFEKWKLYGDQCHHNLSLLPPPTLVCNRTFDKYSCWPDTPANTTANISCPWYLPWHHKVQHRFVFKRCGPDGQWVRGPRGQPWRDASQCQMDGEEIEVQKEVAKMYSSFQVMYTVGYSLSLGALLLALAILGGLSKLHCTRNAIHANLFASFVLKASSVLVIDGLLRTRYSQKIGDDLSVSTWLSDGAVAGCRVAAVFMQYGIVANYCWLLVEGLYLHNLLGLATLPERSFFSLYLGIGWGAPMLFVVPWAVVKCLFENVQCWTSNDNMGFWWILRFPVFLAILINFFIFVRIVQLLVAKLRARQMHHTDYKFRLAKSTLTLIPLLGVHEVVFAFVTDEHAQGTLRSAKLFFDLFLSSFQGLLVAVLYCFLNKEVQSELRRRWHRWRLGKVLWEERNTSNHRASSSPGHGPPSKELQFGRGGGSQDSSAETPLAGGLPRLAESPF

As for `CC[C@H](C)[C@H](NC(=O)[C@H](Cc1ccccc1)NC(=O)[C@H](C)NC(=O)C(C)(CC)NC(=O)[C@H](CCC(N)=O)NC(=O)[C@H](C)NC(=O)[C@H](CCCCNC(=O)COCCOCCNC(=O)CC[C@H](NC(=O)CCCCCCCCCCCCCCCCCCC(=O)O)C(=O)O)NC(=O)[C@H](CCCN)NC(=O)[C@H](CC(=O)O)NC(=O)[C@H](CC(C)C)NC(=O)[C@](C)(CC(C)C)NC(=O)[C@@H](NC(=O)[C@H](CO)NC(=O)[C@H](Cc1ccc(O)cc1)NC(=O)[C@H](CC(=O)O)NC(=O)[C@H](CO)NC(=O)[C@@H](NC(=O)[C@](C)(Cc1ccccc1F)NC(=O)[C@@H](NC(=O)CNC(=O)[C@H](CCC(N)=O)NC(=O)C(C)(C)NC(=O)[C@@H](N)Cc1ccc(O)cc1)[C@@H](C)O)[C@@H](C)O)[C@@H](C)CC)C(=O)N[C@@H](CCC(=O)O)C(=O)N[C@@](C)(Cc1ccc(O)cc1)C(=O)N[C@@H](CC(C)C)C(=O)N[C@@H](CC(C)C)C(=O)N[C@@H](CCC(=O)O)C(=O)NCC(=O)NCC(=O)N1CCC[C@H]1C(=O)N[C@@H](CO)C(=O)N[C@@H](CO)C(=O)NCC(=O)N[C@@H](CCC(=O)O)C(=O)N1CCC[C@H]1C(=O)N1CCC[C@H]1C(=O)N1CCC[C@H]1C(=O)N[C@@H](CO)C(N)=O` (stereo partly drawn) [Example 2] (H-Y[Aib]QGT[αMePhe(2-F)]TSDYSI[αMeL]LD[Orn]K([AEEA-γGlu-C20 diacid])AQ[ξIva]AFIE[αMeY]LLEGGPSSGEPPPS-NH2; N-terminus assumed), in series [1] (subcutaneous), the AUC(0-inf) (as a rule, the area under the concentration-time curve extrapolated to infinity) is 42.5 µM·h; the CL/F (commonly clearance divided by bioavailability, as obtained after extravascular dosing) is 4.7 mL/h/kg; the Cmax (commonly the maximum level reached in the sampled fluid or tissue) is 1240 nM; the Tmax – broadly, the time at which the peak concentration occurs – came to 12 h. Further, the half-life in series [1] (subcutaneous) is 1080 min. Moreover, the Emax (usually the maximal effect, on the per cent scale that the assay sets) in series [2] (setting [5]) amounted to 99 ± 2%. Moreover, the Emax in series [2] (setting [6]) stood at 101 ± 2%.
With `CC[C@H](C)[C@H](NC(=O)[C@H](Cc1ccccc1)NC(=O)C(C)(C)NC(=O)[C@](C)(CC(C)C)NC(=O)[C@H](CCC(N)=O)NC(=O)[C@H](C)NC(=O)[C@H](CCCCNC(=O)COCCOCCNC(=O)CC[C@H](NC(=O)CCCCCCCCCCCCCCCCCCC(=O)O)C(=O)O)NC(=O)[C@H](CCCN)NC(=O)[C@H](CC(=O)O)NC(=O)[C@H](CC(C)C)NC(=O)[C@](C)(CC(C)C)NC(=O)[C@@H](NC(=O)[C@H](CO)NC(=O)[C@H](Cc1ccncc1)NC(=O)[C@H](CC(=O)O)NC(=O)[C@H](CO)NC(=O)[C@@H](NC(=O)[C@](C)(Cc1ccccc1F)NC(=O)[C@@H](NC(=O)CNC(=O)[C@H](CCC(N)=O)NC(=O)C(C)(C)NC(=O)[C@@H](N)Cc1ccc(O)cc1)[C@@H](C)O)[C@@H](C)O)[C@@H](C)CC)C(=O)N[C@H](CCC(=O)O)C(=O)N[C@@](C)(Cc1ccc(O)cc1)C(=O)N[C@@H](CC(C)C)C(=O)N[C@@H](CC(C)C)C(=O)N[C@@H](CCC(=O)O)C(=O)NCC(=O)NCC(=O)N1CCC[C@H]1C(=O)N[C@@H](CO)C(=O)N[C@@H](CO)C(=O)NCC(=O)N[C@@H](CCC(=O)O)C(=O)N1CCC[C@H]1C(=O)N1CCC[C@H]1C(=O)N1CCC[C@H]1C(=O)N[C@@H](CO)C(N)=O` [Example 3], the Emax in series [3] (HEK293, 0.1% bovine casein and 1.0% human serum albumin, read-out: hGLP-1R Emax) came to 111 ± 5%; in series [3] (HEK293, 0.1% bovine casein, read-out: hGLP-1R Emax), 107 ± 2%; in series [4] (HEK293, 0.1% bovine casein and 1.0% human serum albumin), 97 ± 9%; in series [4] (HEK293, 0.1% bovine casein), 99 ± 4%; in series [2] (setting [5]), 105 ± 5%; in series [2] (setting [6]), 103 ± 2%. Further, the AUC(0-inf) in series [1] (subcutaneous) stood at 32.8 µM·h. In addition, in series [1] (subcutaneous), the CL/F was 6.1 mL/h/kg. Moreover, the highest level in series [1] (subcutaneous) (Cmax) was 1070 nM. The Tmax in series [1] (subcutaneous) came out at 12 h. Moreover, in series [1] (subcutaneous), the half-life is 780 min.
As for `CC[C@H](C)[C@H](NC(=O)[C@H](Cc1ccccc1)NC(=O)[C@H](C)NC(=O)[C@H](Cc1ccncc1)NC(=O)[C@H](CCC(N)=O)NC(=O)[C@H](C)NC(=O)[C@H](CCCCNC(=O)COCCOCCNC(=O)CC[C@H](NC(=O)CCCCCCCCCCCCCCCCCCC(=O)O)C(=O)O)NC(=O)[C@H](CCCN)NC(=O)[C@H](CC(=O)O)NC(=O)[C@H](CC(C)C)NC(=O)[C@H](CC(C)C)NC(=O)[C@@H](NC(=O)[C@H](CO)NC(=O)[C@H](Cc1ccc(O)cc1)NC(=O)[C@H](CC(=O)O)NC(=O)[C@H](CO)NC(=O)[C@@H](NC(=O)[C@](C)(Cc1ccccc1F)NC(=O)[C@@H](NC(=O)CNC(=O)[C@H](CCC(N)=O)NC(=O)C(C)(C)NC(=O)[C@@H](N)Cc1ccc(O)cc1)[C@@H](C)O)[C@@H](C)O)[C@@H](C)CC)C(=O)N[C@@H](CCC(=O)O)C(=O)N[C@@H](Cc1ccc(O)cc1)C(=O)N[C@@H](CC(C)C)C(=O)N[C@@H](CC(C)C)C(=O)N[C@@H](CCC(=O)O)C(=O)NCC(=O)NCC(=O)N1CCC[C@H]1C(=O)N[C@@H](CO)C(=O)N[C@@H](CO)C(=O)NCC(=O)N[C@@H](CCC(=O)O)C(=O)N1CCC[C@H]1C(=O)N1CCC[C@H]1C(=O)N1CCC[C@H]1C(=O)N[C@@H](CCC(=O)O)C(N)=O` [Example 1] (H-Y[Aib]QGT[αMePhe(2-F)]TSDYSILLD[Orn]K([AEEA-γGlu-C20 diacid])AQ[4Pal]AFIEYLLEGGPSSGEPPPE-NH2), in series [3] (HEK293, read-out: hGLP-1R Emax, 0.1% bovine casein and 1.0% human serum albumin), the Emax stood at 102 ± 4%. Moreover, the Emax in series [3] (HEK293, read-out: hGLP-1R Emax, 0.1% bovine casein) stood at 106 ± 4%. In addition, in series [1] (in vivo), the total exposure AUC(0-inf) stood at 55.6 µM·h, the apparent clearance CL/F was 3.6 mL/h/kg, the Cmax turned out to be 817 nM and the time of peak concentration (Tmax) stood at 12 h. For the same molecule, the half-life in series [1] (in vivo) is 2280 min. In series [2] (HEK293, read-out: hGIPR Emax, 0.1% bovine casein and 1.0% human serum albumin), the maximum response (Emax) turned out to be 100 ± 3%. Also, the Emax in series [2] (HEK293, read-out: hGIPR Emax, 0.1% bovine casein) was 102 ± 2%.
